≈ marks a conversion by molar mass, not a printed value.
Legend:
[1] = target: T1, human GABAA receptors containing the α5 subunit stably expressed in Ltk cells (Homo sapiens, UniProt P18507+P31644); assay: displacement of [3H]-flumazenil ([3H]Ro 15-1788) from the benzodiazepine binding site; details: read-out: Ki value for displacement of [3H]Ro 15-1788 from the α5 subunit of the human GABAA receptor
T1 construct: expressed in transfected cells; host or cells: Ltk cells (mouse fibroblasts), stably expressing
T1 sequence (P31644 32-462): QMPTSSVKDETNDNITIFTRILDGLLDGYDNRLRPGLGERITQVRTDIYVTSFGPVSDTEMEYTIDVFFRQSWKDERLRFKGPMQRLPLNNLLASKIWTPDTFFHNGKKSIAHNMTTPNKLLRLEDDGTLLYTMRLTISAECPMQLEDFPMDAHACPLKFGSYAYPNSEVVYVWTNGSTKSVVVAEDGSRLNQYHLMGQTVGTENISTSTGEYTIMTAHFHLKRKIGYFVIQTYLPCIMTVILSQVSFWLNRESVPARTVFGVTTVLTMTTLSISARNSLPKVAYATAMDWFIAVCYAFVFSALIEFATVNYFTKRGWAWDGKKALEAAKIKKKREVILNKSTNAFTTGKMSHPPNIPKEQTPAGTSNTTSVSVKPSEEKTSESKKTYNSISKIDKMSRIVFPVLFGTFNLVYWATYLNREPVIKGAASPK
T1 sequence (P18507 40-467 limits assumed): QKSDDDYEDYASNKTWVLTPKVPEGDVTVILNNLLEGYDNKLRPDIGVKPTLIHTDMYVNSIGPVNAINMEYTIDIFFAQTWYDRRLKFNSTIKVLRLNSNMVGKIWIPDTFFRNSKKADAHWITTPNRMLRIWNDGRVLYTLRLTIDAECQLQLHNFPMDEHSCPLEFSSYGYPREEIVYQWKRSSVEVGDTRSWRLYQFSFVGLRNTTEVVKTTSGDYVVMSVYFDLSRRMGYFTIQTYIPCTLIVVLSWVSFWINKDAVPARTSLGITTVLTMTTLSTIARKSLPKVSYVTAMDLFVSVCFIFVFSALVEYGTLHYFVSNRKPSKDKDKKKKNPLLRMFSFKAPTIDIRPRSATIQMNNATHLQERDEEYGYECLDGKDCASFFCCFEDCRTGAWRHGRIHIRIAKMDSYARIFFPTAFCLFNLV
T1 sequence (P28472 26-473 partner): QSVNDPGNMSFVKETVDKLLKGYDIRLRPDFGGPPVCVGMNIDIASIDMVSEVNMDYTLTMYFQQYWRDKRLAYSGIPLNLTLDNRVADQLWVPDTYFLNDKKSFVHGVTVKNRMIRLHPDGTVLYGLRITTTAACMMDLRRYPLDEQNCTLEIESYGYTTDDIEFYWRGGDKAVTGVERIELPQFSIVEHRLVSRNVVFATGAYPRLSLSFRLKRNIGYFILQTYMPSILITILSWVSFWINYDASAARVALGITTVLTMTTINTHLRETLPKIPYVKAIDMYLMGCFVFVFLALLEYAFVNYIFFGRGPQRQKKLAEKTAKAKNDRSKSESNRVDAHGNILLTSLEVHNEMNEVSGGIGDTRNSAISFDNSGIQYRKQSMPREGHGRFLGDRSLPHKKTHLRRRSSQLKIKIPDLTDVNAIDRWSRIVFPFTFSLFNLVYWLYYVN

[2] = tested on: rat; assay: rat water maze test (cognition enhancement); type: in vivo
[3] = tested on: receptor; assay: receptor occupancy at the minimum effective dose; type: in vivo, rat; details: at the minimum effective dose of 0.3 mg/kg
[4] = time dependent solubility in 2.5% aqueous di-sodium pamoate solution by HPLC; type: physicochemical
Experimental: To a stirred, light protected glass vial was added 23.0 mL 2.5% aqueous di-sodium pamoate solution and 42 mg 3-(5-methylisoxazol-3-yl)-6-(1-methyl-1,2,3-triazol-4-yl)methyloxy-1,2,4-triazolo[3,4-a]phthalazine. Aliquots were removed by 3 mL syringe at various time intervals, passed through 0.22 μm Millex-GV low protein binding syringe filters, and diluted to appropriate concentrations with 50/50 MeCN/H2O for HPLC analysis.

[5] = exposure of the anhydrous form to pure water (XRPD of solids); type: physicochemical
Experimental: To an Eppendorf tube was added 1 mL USP water and 20 mg 3-(5-methylisoxazol-3-yl)-6-(1-methyl-1,2, 3-triazol-4-yl)methyloxy-1,2, 4-triazolo[3,4-a]phthalazine. The resulting suspension was vortexed for 10 seconds, then light protected with aluminium foil and placed on a rotary mixer for 72 hours. The solids were then vacuum filtered off and rinsed with 2xl mL water. Solids were partially wet when first analyzed by XRPD, afterward they were dried by house vacuum for 48 hours before more XRPD analysis.
The XRPD data have been described earlier with the exception of the incompletely converted material from the synthesis in water. […] Conversion may take place more rapidly if solubility is increased by the addition of di-sodium pamoate or by other means. The di-hydrate may also be prepared using a 10% solution of MeCN in water.

Ki [1]	solubility at 5 minutes ([4]; 2.5% aqueous di-sodium pamoate solution, aqueous with cosolvent or surfactant or cyclodextrin, thermodynamic from solid, 5 minutes (0.08 h), read-out: Concentration (solubility by HPLC))	solubility at 90 minutes ([4]; 2.5% aqueous di-sodium pamoate solution, aqueous with cosolvent or surfactant or cyclodextrin, thermodynamic from solid, 90 minutes (1.50 h), read-out: Concentration (solubility by HPLC))	solubility at 930 minutes ([4]; 2.5% aqueous di-sodium pamoate solution, aqueous with cosolvent or surfactant or cyclodextrin, thermodynamic from solid, 930 minutes (15.5 h), read-out: Concentration (solubility by HPLC))	solubility at 1500 minutes ([4]; 2.5% aqueous di-sodium pamoate solution, aqueous with cosolvent or surfactant or cyclodextrin, thermodynamic from solid, 1500 minutes (25.0 h), read-out: Concentration (solubility by HPLC))	solubility at 2910 minutes ([4]; 2.5% aqueous di-sodium pamoate solution, aqueous with cosolvent or surfactant or cyclodextrin, thermodynamic from solid, 2910 minutes (48.5 h), read-out: Concentration (solubility by HPLC))	% of 5 Minute Value ([4]; 5 minutes (0.08 h))	% of 5 Minute Value ([4]; 90 minutes (1.50 h))	% of 5 Minute Value ([4]; 930 minutes (15.5 h))	% of 5 Minute Value ([4]; 1500 minutes (25.0 h))	% of 5 Minute Value ([4]; 2910 minutes (48.5 h))	decrease in solubility over time, % of the original solubility after 5 minutes ([4]; summary of Table 1)	solubility in pure water [5]	melting point	SMILES	minimum effective dose [2]	enhancement of cognition ([2]; demonstrated at 0.3 mg/kg and 3 mg/kg)	receptor occupancy [3]
≤ 100 nM	1890 µg/mL (≈ 5.22 mM)	1920 µg/mL (≈ 5.3 mM)	1410 µg/mL (≈ 3.89 mM)	1290 µg/mL (≈ 3.56 mM)	1240 µg/mL (≈ 3.42 mM)	100.0%	101.4%	74.5%	68.0%	65.4%	~65%	extreme insolubility		Cc1cc(-c2nnc3c4ccccc4c(OCc4cn(C)nn4)nn23)no1 [L-822, 179, 3-(5-methylisoxazol-3-yl)-6-(1-methyl-1,2,3-triazol-4-yl)methyloxy-1,2,4-triazolo[3,4-a]phthalazine]	0.3 mg/kg	enhance cognition	40%
													247.5 to 249 °C	Cc1cc(-c2nnc3c4ccccc4c(OCc4cccc(Br)n4)nn23)no1 [compound 2, 6-(6-Bromopyridin-2-yl)methyloxy-3-(5-methylisoxazol-3-yl)-1,2,4-triazolo[3,4-a]phthalazine]			

Reference: US6534505B2, “Therapeutic polymorphs of a GABA-A alpha-5 inverse agonist and pamoate formulations of the same” (Merck & Co., Inc., priority 1998, dated 2003)
